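Briefly, cells in 96-well plates were exposed to five compound concentrations for 48 h, and endpoints were estimated by linear interpolation. GI50 is the concentration that inhibits growth by half. The concentration for full growth arrest is given as TGI.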
Columns and labels:
Assay in all cases: DTP human tumour cell line panel, 48 h
[1] = tested on: UACC-257 melanoma
[2] = tested on: SR leukemia
[3] = tested on: HCT-15 colon
[4] = tested on: SF-295 CNS
[5] = tested on: SK-MEL-28 melanoma
[6] = tested on: HS 578T breast
[7] = tested on: U251 CNS
[8] = tested on: MOLT-4 leukemia
[9] = tested on: TK-10 renal
[10] = tested on: HOP-62 NSCLC
[11] = tested on: CAKI-1 renal
[12] = tested on: K-562 leukemia
[13] = tested on: RXF 393 renal
[14] = tested on: OVCAR-3 ovarian
[15] = tested on: OVCAR-8 ovarian
[16] = tested on: M14 melanoma
[17] = tested on: CCRF-CEM leukemia
[18] = tested on: A549 NSCLC
[19] = tested on: PC-3 prostate
[20] = tested on: HCC-2998 colon
[21] = tested on: NCI-H23 lung
[22] = tested on: HCT-116 colon
[23] = tested on: NCI-H522 lung
[24] = tested on: MDA-MB-231 breast
[25] = tested on: ACHN renal
[26] = tested on: RPMI-8226 leukemia
[27] = tested on: DU-145 prostate
[28] = tested on: HOP-92 NSCLC
[29] = tested on: SW-620 colon
[30] = tested on: SK-MEL-5 melanoma
[31] = tested on: COLO 205 colon
[32] = tested on: UACC-62 melanoma
[33] = tested on: T-47D breast
[34] = tested on: MCF7 breast
[35] = tested on: SN12C renal
[36] = tested on: SK-MEL-2 melanoma
[37] = tested on: SNB-75 CNS
[38] = tested on: NCI-H460 lung
[39] = tested on: 786-0 renal
[40] = tested on: OVCAR-4 ovarian
[41] = tested on: HT29 colon
[42] = tested on: OVCAR-5 ovarian
[43] = tested on: SF-539 CNS
[44] = tested on: MALME-3M melanoma
[45] = tested on: SNB-19 CNS
[46] = tested on: MDA-MB-435
[47] = tested on: IGROV1 ovarian
[48] = tested on: A498 renal
[49] = tested on: SK-OV-3 ovarian
[50] = tested on: UO-31 renal
[51] = tested on: NCI/ADR-RES ovarian
[52] = tested on: LOX IMVI melanoma
[53] = tested on: NCI-H226 lung
[54] = tested on: SF-268 CNS
[55] = tested on: KM12 colon
[56] = tested on: BT-549 breast
[57] = tested on: EKVX NSCLC

C=CCc1c(O)c(C(=O)/C=C/c2ccccc2)c(OC)c2ccoc12
GI50 [1]: 2.56 µM
TGI [1]: 7.75 µM
GI50 [2]: 2.15 µM
TGI [2]: 6.05 µM
GI50 [3]: 2.91 µM
TGI [3]: 11.8 µM
GI50 [4]: 2.44 µM
TGI [4]: 7.26 µM
GI50 [5]: 2.49 µM
TGI [5]: 8.28 µM
GI50 [6]: 3.89 µM
TGI [6]: 33.8 µM
GI50 [7]: 2.36 µM
TGI [7]: 7.46 µM
GI50 [8]: 2.17 µM
TGI [8]: 16.6 µM
GI50 [9]: 4.96 µM
TGI [9]: 17.3 µM
GI50 [10]: 5.32 µM
TGI [10]: 17.8 µM
GI50 [11]: 2.8 µM
TGI [11]: 11 µM
GI50 [12]: 2.87 µM
TGI [12]: 16.2 µM
GI50 [13]: 1.85 µM
TGI [13]: 5.62 µM
GI50 [14]: 2.46 µM
TGI [14]: 7.06 µM
GI50 [15]: 3.13 µM
TGI [15]: 13.6 µM
GI50 [16]: 5.36 µM
TGI [16]: 22.9 µM
GI50 [17]: 2.75 µM
TGI [17]: > 100 µM
GI50 [18]: 4.41 µM
TGI [18]: 22.1 µM
GI50 [19]: 3.68 µM
TGI [19]: 16.8 µM
GI50 [20]: 1.73 µM
TGI [20]: 3.21 µM
GI50 [21]: 2.52 µM
GI50 [22]: 3.03 µM
TGI [22]: 11.1 µM
GI50 [23]: 2.15 µM
TGI [23]: 9.28 µM
GI50 [24]: 3.11 µM
TGI [24]: 11.3 µM
GI50 [25]: 3.79 µM
TGI [25]: 13.8 µM
GI50 [26]: 1.88 µM
TGI [26]: 6.76 µM
GI50 [27]: 4.92 µM
TGI [27]: 18.1 µM
GI50 [28]: 1.33 µM
TGI [28]: 4.82 µM
GI50 [29]: 3.32 µM
TGI [29]: 12.1 µM
GI50 [30]: 2.66 µM
TGI [30]: 10.9 µM
GI50 [31]: 5.96 µM
TGI [31]: 18.1 µM
GI50 [32]: 2.74 µM
TGI [32]: 9.93 µM
GI50 [33]: 4.11 µM
TGI [33]: 22.4 µM
GI50 [34]: 2.73 µM
TGI [34]: 10.4 µM
GI50 [35]: 3.79 µM
TGI [35]: 14.1 µM
GI50 [36]: 3.04 µM
TGI [36]: 13.8 µM
GI50 [37]: 1.39 µM
TGI [37]: 6.76 µM
GI50 [38]: 2.79 µM
TGI [38]: 10.7 µM
GI50 [39]: 4.12 µM
TGI [39]: 16.8 µM
GI50 [40]: 2.89 µM
TGI [40]: 12.8 µM
GI50 [41]: 3.01 µM
GI50 [42]: 3.22 µM
TGI [42]: 12.7 µM
GI50 [43]: 1.71 µM
TGI [43]: 3.93 µM
GI50 [44]: 5.8 µM
TGI [44]: 20.2 µM
GI50 [45]: 2.85 µM
TGI [45]: 10.7 µM
GI50 [46]: 2.78 µM
TGI [46]: 10.9 µM
GI50 [47]: 3.35 µM
TGI [47]: 11.6 µM
GI50 [48]: 1.74 µM
TGI [48]: 9.4 µM
GI50 [49]: 8.08 µM
TGI [49]: 21.2 µM
GI50 [50]: 2.89 µM
TGI [50]: 14.5 µM
GI50 [51]: 1.88 µM
TGI [51]: 4.91 µM
GI50 [52]: 1.56 µM
TGI [52]: 2.93 µM
GI50 [53]: 1.48 µM
TGI [53]: 3.21 µM
GI50 [54]: 2.8 µM
TGI [54]: 10.7 µM
GI50 [55]: 4.06 µM
TGI [55]: 13.6 µM
GI50 [56]: 2.63 µM
TGI [56]: 8.09 µM
GI50 [57]: 6.13 µM
TGI [57]: 20.6 µM
